According to patent publication US20220008409A1, “CANCER COMBINATION THERAPY USING QUINOLINE CARBOXAMIDE DERIVATIVE” (KABUSHIKI KAISHA YAKULT HONSHA, priority 2018, published 2022):
Blank lines part the entries; values can stand above or below the compound they belong to.

Experiments:
[1] = system: K562; test: Combination effect by median-effect method, WST-8 assay; assay type: cell-based, Human; details: in combination with STX-1159, 48 hours
Text: (§1) NCI-H2228, NCI-H1975, SK-BR-3, Hep3B, MCF-7, Caov-3, A2058, K562 and SUP-B15 were purchased from American Type Culture Collection, SAS and HuH-7 were purchased from National Institutes of Biomedical Innovation, Health and Nutrition, and K1, FTC-133 and Ishikawa were purchased European Collection of Authenticated Cell Cultures. […] Fetal bovine serum (hereinafter, abbreviated as FBS) and MCDB 105 culture medium were purchased from Sigma Aldrich (Cat. Nos. 172012 and 117-500), and RMPI1640 culture medium, DMEM medium, Ham's F-12 medium, MEM medium and IMDM culture medium were purchased Thermo Fisher Scientific (Cat. Nos. A1049101, 11995-065, 11765-054, 11095-080 and 12440-053).
(§2) The cells were inoculated on a 96-well plate to the density shown in Table 2, and were cultured under conditions of 5% CO2 and 37° C. The agents were singly added one day after the cells were inoculated. To the control group was added DMSO, so as to be a final concentration of 0.05%. Subsequently, the cells were cultured under conditions of 5% CO2 and 37° C. for the time shown in Table 2, and the number living cells was evaluated by WST-8 assay. That is, 10 μL of a WST-8 kit solution (Kishida Chemical Co., ltd, Cat. No. 260-96162) was added to each well, and the cells were cultured under conditions of 5% CO2 and 37° C. for 1 to 2 hours. The absorbance of water-soluble formazan generated by enzymatic activity of mitochondria in cells was measured at 450 nm using a microplate reader (Molecular Devices, Model: SpectraMax Plus). This was evaluated as the viable cell count to calculate a 50% cell growth inhibitory concentration (hereinafter, abbreviated as IC50).
(§3) The cells were inoculated on a 96-well plate so as to be the density shown in Table 2, and were cultured under conditions of 5% CO2 and 37° C. One day after the cells were inoculated, for single groups, STX-1159 and the agents were each added so as to be a final concentration which is ¼ times, ½ times, 1 time, 2 times or 4 times the reference dose, and for combination groups, STX-1159 and the agents were added so as to be a final concentration where STX-1159 and the agents combined were each ¼ times, ½ times, 1 time, 2 times or 4 times the reference dose. To the control group was added DMSO, so as to be a final concentration of 0.1%. Subsequently, the cells were cultured under conditions of 5% CO2 and 37° C. for the time shown in Table 2, and the number living cells was measured by WST-8 assay. The fraction affected (hereinafter, abbreviated as fa) was calculated from the following expression:
(§4) fa=1−(viable cell count in agent exposure group)/(viable cell count in control group).
(§5) By a median-effect method using combination effect analyzing software CalcuSyn (HULINKS), the combination index (hereinafter, abbreviated as CI) was calculated from fa obtained when STX-1159 and the agents were exposed alone or in combination. Evaluation of the combination effect was based on grading by CI in Table 4. In calculation of CI, the average of the values from two or more experiments was employed.

[2] = system: SUP-B15; test: as above; assay type: cell-based; details: in combination with STX-1159, 72 hours
Text: as §1, §2
as §3, with “expression: […]” for “expression:”
By a median-effect method using combination effect analyzing software CalcuSyn (HULINKS), the combination index (hereinafter, abbreviated as CI) was calculated from fa obtained when STX-1159 and the agents were exposed alone or in combination. […]

[3] = Combination effect by median-effect method, summary over the cell lines of Example 1; assay type: cell-based; details: in combination with STX-1159; summary of Table 5
Experimental: The fraction affected (hereinafter, abbreviated as fa) was calculated from the following expression: fa=1-(viable cell count in agent exposure group)/(viable cell count in control group). […] Evaluation of the combination effect was based on grading by CI in Table 4. In calculation of CI, the average of the values from two or more experiments was employed.

[4] = system: NCI-H1975; test: Combination effect by median-effect method, WST-8 assay; assay type: cell-based, Human; details: in combination with STX-1159, 72 hours
Text: as §1
(§6) The agents were singly added one day after the cells were inoculated. […] The absorbance of water-soluble formazan generated by enzymatic activity of mitochondria in cells was measured at 450 nm using a microplate reader (Molecular Devices, Model: SpectraMax Plus). This was evaluated as the viable cell count to calculate a 50% cell growth inhibitory concentration (hereinafter, abbreviated as IC50). The reference dose of each agent was set based on IC50 (Table 3).
(§7) One day after the cells were inoculated, for single groups, STX-1159 and the agents were each added so as to be a final concentration which is ¼ times, ½ times, 1 time, 2 times or 4 times the reference dose, and for combination groups, STX-1159 and the agents were added so as to be a final concentration where STX-1159 and the agents combined were each ¼ times, ½ times, 1 time, 2 times or 4 times the reference dose. […] The fraction affected (hereinafter, abbreviated as fa) was calculated from the following expression:
as §4, §5

[5] = system: Hep3B; test: as above; assay type: cell-based, Human; details: in combination with STX-1159, 72 hours
Text: as §1, §6, §7, §4, §5

[6] = system: HuH-7; test: as above; assay type: cell-based, Human; details: in combination with STX-1159, 72 hours
Text: as §1, §6, §7, §4, §5

[7] = biological target: T1, phosphorylated STAT3 (Homo sapiens, UniProt P40763); test: Western blotting in NCI-H2228 cells; assay type: cell-based; details: 24 hours
T1 construct: endogenous in cells; host or cells: NCI-H2228
T1 sequence (P40763 whole entry): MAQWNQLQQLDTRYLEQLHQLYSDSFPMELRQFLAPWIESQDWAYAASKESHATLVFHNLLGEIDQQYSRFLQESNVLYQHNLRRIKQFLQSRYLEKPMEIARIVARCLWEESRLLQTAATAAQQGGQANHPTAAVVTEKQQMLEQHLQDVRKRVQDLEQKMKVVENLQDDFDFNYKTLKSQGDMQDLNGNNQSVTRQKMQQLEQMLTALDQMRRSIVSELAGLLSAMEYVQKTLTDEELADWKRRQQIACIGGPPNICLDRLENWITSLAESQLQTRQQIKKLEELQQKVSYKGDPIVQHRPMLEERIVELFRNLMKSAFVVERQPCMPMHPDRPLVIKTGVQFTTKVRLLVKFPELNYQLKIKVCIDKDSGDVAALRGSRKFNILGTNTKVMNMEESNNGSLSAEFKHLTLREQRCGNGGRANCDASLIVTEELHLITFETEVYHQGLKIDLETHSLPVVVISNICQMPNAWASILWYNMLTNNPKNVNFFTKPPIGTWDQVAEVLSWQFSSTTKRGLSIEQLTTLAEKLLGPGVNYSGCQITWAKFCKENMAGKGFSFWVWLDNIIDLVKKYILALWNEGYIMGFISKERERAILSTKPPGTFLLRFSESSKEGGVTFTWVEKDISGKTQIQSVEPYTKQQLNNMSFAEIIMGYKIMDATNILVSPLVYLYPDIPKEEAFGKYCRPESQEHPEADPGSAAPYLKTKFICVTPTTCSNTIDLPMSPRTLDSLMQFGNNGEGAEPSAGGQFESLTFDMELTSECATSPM

[8] = system: survivin; test: Western blotting in NCI-H2228 cells; assay type: cell-based, Human; details: agent alone, STX-1159 5 μM, 24 hours
[9] = system: c-myc; test: Western blotting in NCI-H2228 cells; assay type: cell-based, Human; details: 24 hours
[10] = system: NCI-H2228; test: Combination effect by median-effect method, WST-8 assay; assay type: cell-based, Human; details: in combination with STX-1159, 72 hours
Text: as §1, §6, §7, §4, §5

[11] = system: Caov-3; details: in combination with STX-1159, 72 hours
Text: as §1, §2, §3, §4, §5

[12] = system: Ishikawa; details: in combination with STX-1159, 72 hours
Text: as §1, §2, §3, §4, §5

[13] = system: MCF-7; details: in combination with STX-1159, 72 hours
Text: as §1, §2, §3, §4, §5

[14] = system: K1; test: Combination effect by median-effect method, WST-8 assay; assay type: cell-based, Human; details: in combination with STX-1159, 72 hours
Text: as §1, §6, §7, §4, §5

[15] = system: FTC-133; details: in combination with STX-1159, 72 hours
Text: as §1, §2, §3, §4, §5

[16] = system: SAS; details: in combination with STX-1159, 48 hours
Text: as §1, §2, §3, §4, §5

[17] = system: A2058; test: Combination effect by median-effect method, WST-8 assay; assay type: cell-based, Human; details: in combination with STX-1159, 72 hours
Text: as §1, §6, §7, §4, §5

[18] = system: SK-BR-3; test: as above; assay type: cell-based, Human; details: in combination with STX-1159, 72 hours
Text: as §1, §2, §3, §4, §5

[19] = agent alone, STX-1159 5 μM, alectinib 0.01 or 0.1 μM
[20] = both agents in combination (STX-1159 5 μM, alectinib 0.01 or 0.1 μM) versus each single agent

Structure (SMILES): Cc1ccc(NC(=O)c2ccc(CN3CCN(C)CC3)cc2)cc1Nc1nccc(-c2cccnc2)n1 [Imatinib]
CI [1]: 0.83
Combination effect [1]: Moderate synergetic effect (0.7 < CI ≤ 0.85)
CI [2]: 0.85
Combination effect [2]: Moderate synergetic effect (0.7 < CI ≤ 0.85)
combination effect by the median-effect method [3]: synergetic effect

Structure (SMILES): C=CC(=O)Nc1cc(Nc2nccc(-c3cn(C)c4ccccc34)n2)c(OC)cc1N(C)CCN(C)C [Osimertinib, osimertinib]
CI [4]: 0.81
Combination effect [4]: Moderate synergetic effect (0.7 < CI ≤ 0.85)
combination effect by the median-effect method [3]: synergetic effect

Structure (SMILES): COc1cc2nccc(Oc3ccc(NC(=O)NC4CC4)c(Cl)c3)c2cc1C(N)=O [Lenvatinib, lenvatinib]
CI [5]: 0.75
Combination effect [5]: Moderate synergetic effect (0.7 < CI ≤ 0.85)
CI [6]: 0.85
Combination effect [6]: Moderate synergetic effect (0.7 < CI ≤ 0.85)
combination effect by the median-effect method [3]: synergetic effect

Structure (SMILES): O=C(Nc1nnc(-c2ccco2)o1)c1cc(-c2ccccc2)nc2ccc(OC(F)(F)F)cc12 [STX-1159, N-[5-(2-furyl)-1,3,4-oxadiazol-2-yl]-2-phenyl-6-tri fluoromethoxy-4-quinoline carboxamide]
amount of phosphorylated STAT3 [7, 19]: reduced
amount of survivin [8]: reduced
amount of c-myc [9, 19]: reduced

Structure (SMILES): Cc1cc(Nc2ncc(Cl)c(Nc3ccccc3S(=O)(=O)C(C)C)n2)c(OC(C)C)cc1C1CCNCC1 [Ceritinib, ceritinib]
CI [10]: 0.34
Combination effect [10]: Synergetic effect (0.3 < CI ≤ 0.7)
combination effect by the median-effect method [3]: synergetic effect

Structure (SMILES): CO[C@H]1C[C@@H]2CC[C@@H](C)[C@@](O)(O2)C(=O)C(=O)N2CCCC[C@H]2C(=O)O[C@H]([C@H](C)C[C@@H]2CC[C@@H](OCCO)[C@H](OC)C2)CC(=O)[C@H](C)/C=C(\C)[C@@H](O)[C@@H](OC)C(=O)[C@H](C)C[C@H](C)/C=C/C=C/C=C/1C [Everolimus, everolimus]
CI [11]: 0.90
Combination effect [11]: Light synergetic effect (0.85 < CI ≤ 0.9)
CI [12]: 0.89
Combination effect [12]: Light synergetic effect (0.85 < CI ≤ 0.9)
CI [13]: 0.73
Combination effect [13]: Moderate synergetic effect (0.7 < CI ≤ 0.85)
combination effect by the median-effect method [3]: synergetic effect

Structure (SMILES): CNC(=O)c1cc(Oc2ccc(NC(=O)Nc3ccc(Cl)c(C(F)(F)F)c3)cc2)ccn1 [Sorafenib]
CI [14]: 0.77
Combination effect [14]: Moderate synergetic effect (0.7 < CI ≤ 0.85)
CI [15]: 0.85
Combination effect [15]: Light synergetic effect (0.85 < CI ≤ 0.9)
CI [16]: 0.56
Combination effect [16]: Synergetic effect (0.3 < CI ≤ 0.7)
combination effect by the median-effect method [3]: synergetic effect

Structure (SMILES): CC(=O)Nc1cccc(-n2c(=O)n(C3CC3)c(=O)c3c(Nc4ccc(I)cc4F)n(C)c(=O)c(C)c32)c1 [Trametinib, trametinib]
CI [17]: 0.78
Combination effect [17]: Moderate synergetic effect (0.7 < CI ≤ 0.85)

Structure (SMILES): Cc1nc(Nc2ncc(C(=O)Nc3c(C)cccc3Cl)s2)cc(N2CCN(CCO)CC2)n1 [Dasatinib, dasatinib]
CI [1]: 0.78
Combination effect [1]: Moderate synergetic effect (0.7 < CI ≤ 0.85)
CI [2]: 0.71
Combination effect [2]: Moderate synergetic effect (0.7 < CI ≤ 0.85)

amount of phosphorylated STAT3 [7, 19]: reduced
amount of phosphorylated STAT3 [7, 20]: more reduced
Structure (SMILES): CCc1cc2c(cc1N1CCC(N3CCOCC3)CC1)C(C)(C)c1[nH]c3cc(C#N)ccc3c1C2=O [Alectinib]
CI [10]: 0.57
Combination effect [10]: Synergetic effect (0.3 < CI ≤ 0.7)
amount of c-myc [9, 19]: reduced
amount of c-myc [9, 20]: more reduced
combination effect by the median-effect method [3]: synergetic effect

Structure (SMILES): CC(C)(C)c1nc(-c2cccc(NS(=O)(=O)c3c(F)cccc3F)c2F)c(-c2ccnc(N)n2)s1 [Dabrafenib, dabrafenib]
CI [17]: 0.73
Combination effect [17]: Moderate synergetic effect (0.7 < CI ≤ 0.85)
combination effect by the median-effect method [3]: synergetic effect

Structure (SMILES): COc1cc2c(Nc3ccc(Br)cc3F)ncnc2cc1OCC1CCN(C)CC1 [Vandetanib, vandetanib]
CI [14]: 0.69
Combination effect [14]: Synergetic effect (0.3 < CI ≤ 0.7)
CI [15]: 0.75
Combination effect [15]: Moderate synergetic effect (0.7 < CI ≤ 0.85)

Structure (SMILES): C[C@@H](Oc1cc(-c2cnn(C3CCNCC3)c2)cnc1N)c1c(Cl)ccc(F)c1Cl [Crizotinib]
CI [10]: 0.50
Combination effect [10]: Synergetic effect (0.3 < CI ≤ 0.7)
combination effect by the median-effect method [3]: synergetic effect

Structure (SMILES): CS(=O)(=O)CCNCc1ccc(-c2ccc3ncnc(Nc4ccc(OCc5cccc(F)c5)c(Cl)c4)c3c2)o1 [Lapatinib, lapatinib]
CI [18]: 0.88
Combination effect [18]: Light synergetic effect (0.85 < CI ≤ 0.9)
combination effect by the median-effect method [3]: synergetic effect
